# Source: patent US20090148540A1, “Antibacterial composition and method of production” (MI HOPE INCORPORATED, priority 2007, published 2009)
# Tested on: MRSA
# Test: Anti-MRSA activity on dried surface areas swabbed with MRSA broth, surveyed with MRSA selective agar plates
# Assay type: cell-based, Staphylococcus aureus
# Settings: surface areas previously swabbed with MRSA broth; treated areas dried 30 minutes; MEC DD Checker Plates; copper citrate solution (22 volts, 2.8 amps, 2 hours) diluted 1 to 10 in water
# Protocol: In one protocol, the diluted copper citrate solution was applied to several dried surface areas that had been previously swabbed with an MRSA containing broth solution. The treated areas were allowed to dry over the next 30 minutes. An MRSA selective agar medium was then used to survey the areas for residual MRSA (MEC DD Checker Plates obtained from Denka Seiken, Inc., Japan). For control, similarly contaminated areas were either left untreated or exposed to the original starting 5% citric acid solution.
compound,measurement,value
"O=C(O)CC(O)(CC(=O)O)C(=O)O [5% citric acid solution, citric acid]",residual MRSA growth on MRSA selective agar medium from treated surface areas,numerous MRSA colonies developed
